Source: PubChem BioAssay (NCI)
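Compound exposure: 48 hours, 5 concentrations, 96-well plates. At the GI50, growth is halved. TGI: total growth inhibition.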

What was measured:
Test in all cases: NCI anticancer screen, dose series, 48 h
[1] = test system: DU-145 prostate
[2] = test system: M14 melanoma
[3] = test system: HS 578T breast
[4] = test system: HCC-2998 colon
[5] = test system: NCI-H460 lung
[6] = test system: MOLT-4 leukemia
[7] = test system: 786-0 renal
[8] = test system: SK-MEL-28 melanoma
[9] = test system: HOP-62 NSCLC
[10] = test system: OVCAR-8 ovarian
[11] = test system: SNB-19 CNS
[12] = test system: KM12 colon
[13] = test system: SN12C renal
[14] = test system: HOP-92 NSCLC
[15] = test system: COLO 205 colon
[16] = test system: NCI-H23 lung
[17] = test system: NCI-H226 lung
[18] = test system: OVCAR-3 ovarian
[19] = test system: MDA-MB-435
[20] = test system: ACHN renal
[21] = test system: SK-OV-3 ovarian
[22] = test system: K-562 leukemia
[23] = test system: CAKI-1 renal
[24] = test system: SR leukemia
[25] = test system: RXF 393 renal
[26] = test system: HT29 colon
[27] = test system: HL-60(TB) leukemia
[28] = test system: HCT-116 colon
[29] = test system: SNB-75 CNS
[30] = test system: A549 NSCLC
[31] = test system: EKVX NSCLC
[32] = test system: SF-295 CNS
[33] = test system: UACC-62 melanoma
[34] = test system: MDA-MB-231 breast
[35] = test system: UACC-257 melanoma
[36] = test system: SK-MEL-5 melanoma
[37] = test system: PC-3 prostate
[38] = test system: LOX IMVI melanoma
[39] = test system: OVCAR-5 ovarian
[40] = test system: SW-620 colon
[41] = test system: A498 renal
[42] = test system: T-47D breast
[43] = test system: OVCAR-4 ovarian
[44] = test system: SK-MEL-2 melanoma
[45] = test system: NCI/ADR-RES ovarian
[46] = test system: HCT-15 colon
[47] = test system: NCI-H522 lung
[48] = test system: MCF7 breast
[49] = test system: CCRF-CEM leukemia
[50] = test system: IGROV1 ovarian
[51] = test system: U251 CNS
[52] = test system: RPMI-8226 leukemia
[53] = test system: SF-268 CNS
[54] = test system: UO-31 renal
[55] = test system: BT-549 breast
[56] = test system: TK-10 renal
[57] = test system: SF-539 CNS

CC(=O)Oc1ccc(C2=Cc3ccc(OC(C)=O)cc3OC2C)cc1 (centres undefined)
GI50 [1]: 3.27 µM | TGI [1]: 13.9 µM | GI50 [2]: 4.11 µM | TGI [2]: 38.1 µM | GI50 [3]: 2.75 µM | TGI [3]: 7.81 µM | GI50 [4]: 11.1 µM | TGI [4]: 72 µM | GI50 [5]: 3.35 µM | TGI [5]: 13.2 µM | GI50 [6]: 1.97 µM | TGI [6]: 19.4 µM | GI50 [7]: 4.1 µM | TGI [7]: 33.8 µM | GI50 [8]: 10.3 µM | TGI [8]: 43.4 µM | GI50 [9]: 6.07 µM | TGI [9]: 57.2 µM | GI50 [10]: 4.41 µM | TGI [10]: > 100 µM | GI50 [11]: 14.7 µM | TGI [11]: > 100 µM | GI50 [12]: 5.97 µM | TGI [12]: 23.2 µM | GI50 [13]: 7.08 µM | TGI [13]: > 100 µM | GI50 [14]: 6.74 µM | TGI [14]: > 100 µM | GI50 [15]: 27.9 µM | TGI [15]: > 100 µM | GI50 [16]: 5.3 µM | TGI [16]: > 100 µM | GI50 [17]: 4.96 µM | TGI [17]: 53.8 µM | GI50 [18]: 3.33 µM | TGI [18]: 15.3 µM | GI50 [19]: 0.63 µM | TGI [19]: 15 µM | GI50 [20]: 2.29 µM | TGI [20]: > 100 µM | GI50 [21]: 6.56 µM | TGI [21]: 67 µM | GI50 [22]: 3.05 µM | TGI [22]: > 100 µM | GI50 [23]: 2.31 µM | TGI [23]: 5.73 µM | GI50 [24]: 1.7 µM | TGI [24]: 9.95 µM | GI50 [25]: 4.11 µM | TGI [25]: 26.4 µM | GI50 [26]: 20.7 µM | TGI [26]: > 100 µM | GI50 [27]: 0.645 µM | TGI [27]: 4.86 µM | GI50 [28]: 4.87 µM | TGI [28]: 17.9 µM | GI50 [29]: 3.48 µM | TGI [29]: 29.7 µM | GI50 [30]: 6.29 µM | TGI [30]: > 100 µM | GI50 [31]: 2.38 µM | TGI [31]: 13.5 µM | GI50 [32]: 2 µM | TGI [32]: 4.25 µM | GI50 [33]: 4.61 µM | TGI [33]: 25.1 µM | GI50 [34]: 5.06 µM | TGI [34]: 63.7 µM | GI50 [35]: 15 µM | TGI [35]: 64.1 µM | GI50 [36]: 7.24 µM | TGI [36]: 29.9 µM | GI50 [37]: 5.8 µM | TGI [37]: > 100 µM | GI50 [38]: 4.09 µM | TGI [38]: 26.2 µM | GI50 [39]: 21.1 µM | TGI [39]: > 100 µM | GI50 [40]: 6.33 µM | TGI [40]: 29.8 µM | GI50 [41]: 2.25 µM | TGI [41]: 7.95 µM | GI50 [42]: 12.7 µM | TGI [42]: 60.5 µM | GI50 [43]: 14.2 µM | TGI [43]: 81.4 µM | GI50 [44]: 23.4 µM | TGI [44]: 78.5 µM | GI50 [45]: 3.57 µM | TGI [45]: 73.1 µM | GI50 [46]: 5.07 µM | TGI [46]: 26.1 µM | GI50 [47]: 3.58 µM | TGI [47]: 23.1 µM | GI50 [48]: 6.28 µM | TGI [48]: 52.3 µM | GI50 [49]: 0.525 µM | TGI [49]: 22.5 µM | GI50 [50]: 3.41 µM | TGI [50]: 17 µM | GI50 [51]: 4.91 µM | TGI [51]: 79.9 µM | GI50 [52]: 0.59 µM | TGI [52]: 16 µM | GI50 [53]: 3.44 µM | TGI [53]: 30.6 µM | GI50 [54]: 2.05 µM | TGI [54]: 6.65 µM | GI50 [55]: 4.66 µM | TGI [55]: 69.9 µM | GI50 [56]: 20 µM | TGI [56]: > 100 µM | GI50 [57]: 2.51 µM | TGI [57]: 9.07 µM
